From patent US8673268B2, “Molecular targets and compounds, and methods to identify the same, useful in the treatment of joint degenerative and inflammatory diseases” (Galapagos N.V., priority 2004, dated 2014)
pIC50: −log10 of the molar value.

Legend:
TIMP-2 secretion by SFs = assay: TIMP-2 secretion ELISA; assay type: cell-based, human
Description: The secretion of TIMP-2 by SFs is determined to eliminate the factor of general suppression of SF secretory activity by the Ad-siRNAs as the cause of reduced expression of MMP1 in the reverse MMP1 assay. TIMP-2 is a protein that SFs express and secret constitutively. Secretion of TIMP-2 into the SF supernatant is blocked by the addition of BrefeldinA, a small molecule inhibitor of secretion. The level of SF TIMP-2 protein secretion is detected by ELISA. RASF cells are seeded in 96-well gelatin coated plates at 3000 cells/well in 100 μl synovial growth medium. After overnight incubation, cells are infected and incubated for 5 days at 37° C. in a 10% CO2 incubator. […] TIMP2 levels are determined by a standard ELISA assay, essentially as outlined for the MMP1 ELISA. […] After 5 minutes incubation at room temperature in the dark, luminescence is quantified on a luminometer (Luminoscan Ascent).
The procedure described above (plate layout, MOI, method for determination of the cutoff) applied for these experiments is identical to the one described for the toxicity measurements (i.e., a primary test with 12 μl infection volume and a retest with 3, 6, 12 μl infection volumes) differing only in that the cutoff applied in the primary test is determined as the average over all samples minus 2 times standard deviation over all samples. […]

rheumatoid arthritis = conditions: RA patients, after 24 months treatment; cited from earlier work
[1] = tested on: MMP1 expression by synovial fibroblasts (SFs); assay: reverse MMP1 assay: MMP1 ELISA on supernatant of SFs activated with TNFα-based trigger; assay type: cell-based; conditions: Homo sapiens, Fibroblast, supernatant collected 48 hours after trigger, FIG. 5, read-out: IC50 for reduction of TNF-based trigger-induced MMP1 expression by SFs
Description: A 384-well format ELISA for measurement of MMP1 is developed. Various primary antibodies are tested, as well as various ELISA protocols. The following protocol is developed and validated to measure MMP1 levels in SF supernatant in 384 well plates: white Lumitrac 600 384 well plates (Greiner) are coated with 2 μg/ml anti-MMP1 antibody MAB1346 (Chemicon). The antibody is diluted in buffer 40 (1.21 g Tris base (Sigma), 0.58 g NaCl (Calbiochem) and 5 ml 10% NaN3 (Sigma) in 1 L milliQ water and adjusted to pH 8.5). After overnight incubation at 4° C., plates are washed with PBS (80 g NaCl, 2 g KCl (Sigma), 11.5 g Na2HPO4.7H2O and 2 g KH2PO4 in 10 L milliQ; pH 7.4) and blocked with 100 μl/well Casein buffer (2% Casein (VWR International) in PBS). Next day, casein buffer is removed from ELISA plates and replaced by 50 μl/well EC buffer (4 g casein, 2.13 g Na2HPO4 (Sigma), 2 g bovine albumin (Sigma), 0.69 g NaH2PO4.H2O (Sigma), 0.5 g CHAPS (Roche), 23.3 g NaCl, 4 ml 0.5 M EDTA pH 8 (Invitrogen), 5 ml 10% NaN3 in 1 L milliQ and adjusted to pH 7.0). 0.25 mM DTT (Sigma) are added to the thawed samples plates. After removal of the EC buffer, 20 μl of sample are transferred to the ELISA plates. […] Readout is performed on the Luminoscan Ascent Luminometer (Labsystems) with an integration time of 200 msec or with an Envision reader (Perkin Elmer). […]

Structure (SMILES): C[C@H]1CCC/C=C/[C@@H]2C[C@H](O)C[C@H]2[C@H](O)/C=C/C(=O)O1 [BrefeldinA]
- secretion of TIMP-2 into the SF supernatant (TIMP-2 secretion by SFs): blocked

Structure (SMILES): CN(Cc1cnc2nc(N)nc(N)c2n1)c1ccc(C(=O)N[C@@H](CCC(=O)O)C(=O)O)cc1 [methotrexate]
- patients achieving an ACR50 score (rheumatoid arthritis): 30%

Structure (SMILES): C[C@@H]1C[C@H]2[C@@H]3CCC4=CC(=O)C=C[C@]4(C)[C@@]3(F)[C@@H](O)C[C@]2(C)[C@@]1(O)C(=O)CO [dexamethasone]
- pIC50 [1]: ~9.00
